# Results published in PMC4357699, “Identification of a second GTP-bound magnesium ion in archaeal initiation factor 2” (Nucleic Acids Research, 2015).
# Key:
# Assay in all cases: nitrocellulose filter binding of [3H]GDP
# Conditions in all cases: read-out: apparent Kd
# [1] = target: T1, Ss-aIF2 (aIF2 heterotrimer, αβγ) (Saccharolobus solfataricus, UniProt Q980A5, D19A)
# T1 construct: gene eif2g; full heterotrimer of α, β and γ subunits, purified; gamma from pET15b-Ss-aIF2γ; with Translation initiation factor 2 subunit alpha; Translation initiation factor 2 subunit beta
# T1 sequence (Q97W59 whole entry): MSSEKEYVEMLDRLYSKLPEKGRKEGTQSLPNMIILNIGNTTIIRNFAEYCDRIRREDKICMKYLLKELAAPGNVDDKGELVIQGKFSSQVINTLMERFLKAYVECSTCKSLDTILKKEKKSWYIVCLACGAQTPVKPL
# T1 sequence (Q97Z79 whole entry, further chain): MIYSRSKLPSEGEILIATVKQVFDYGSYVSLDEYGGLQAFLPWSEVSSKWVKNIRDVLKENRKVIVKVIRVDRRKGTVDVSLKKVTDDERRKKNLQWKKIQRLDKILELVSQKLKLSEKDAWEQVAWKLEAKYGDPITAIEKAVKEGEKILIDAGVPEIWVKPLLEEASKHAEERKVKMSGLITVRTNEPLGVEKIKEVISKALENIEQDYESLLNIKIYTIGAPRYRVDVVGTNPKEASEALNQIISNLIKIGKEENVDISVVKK
# T1 sequence (Q980A5 whole entry D19A): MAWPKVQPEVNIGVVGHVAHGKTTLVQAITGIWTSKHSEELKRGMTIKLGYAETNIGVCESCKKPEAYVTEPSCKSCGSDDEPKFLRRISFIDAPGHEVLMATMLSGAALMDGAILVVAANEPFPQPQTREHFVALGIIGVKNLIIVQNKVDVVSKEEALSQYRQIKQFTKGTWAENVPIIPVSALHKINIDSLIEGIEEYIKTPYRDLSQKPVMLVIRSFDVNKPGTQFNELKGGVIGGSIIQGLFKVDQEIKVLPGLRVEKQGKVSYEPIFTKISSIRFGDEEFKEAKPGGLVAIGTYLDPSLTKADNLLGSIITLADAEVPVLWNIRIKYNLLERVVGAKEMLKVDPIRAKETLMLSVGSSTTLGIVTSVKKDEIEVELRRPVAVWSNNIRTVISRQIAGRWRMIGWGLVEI
# [2] = target: T2, Ss-aIF2 (aIF2 heterotrimer, αβγ) (Saccharolobus solfataricus, UniProt Q980A5, H97A)
# T2 construct: gene eif2g; full heterotrimer of α, β and γ subunits, purified; gamma from pET15b-Ss-aIF2γ; with Translation initiation factor 2 subunit alpha; Translation initiation factor 2 subunit beta
# T2 sequence (Q980A5 whole entry H97A): as the sequence (Q980A5 whole entry D19A) above, with A19D, H97A counted along it
# T2 sequence (Q97W59 whole entry, further chain): as the sequence (Q97W59 whole entry) above
# T2 sequence (Q97Z79 whole entry, further chain): as the sequence (Q97Z79 whole entry, further chain) above
# [3] = target: T3, Ss-aIF2 (aIF2 heterotrimer, αβγ) (Saccharolobus solfataricus, UniProt Q980A5)
# T3 construct: gene eif2g; full heterotrimer of α, β and γ subunits, purified; gamma from pET15b-Ss-aIF2γ; with Translation initiation factor 2 subunit alpha; Translation initiation factor 2 subunit beta
# T3 sequence (Q97Z79 whole entry): as the sequence (Q97Z79 whole entry, further chain) above
# T3 sequence (Q97W59 whole entry, further chain): as the sequence (Q97W59 whole entry) above
# T3 sequence (Q980A5 whole entry): as the sequence (Q980A5 whole entry D19A) above, with A19D counted along it
smiles,measurement,setting,value
Nc1nc2c(ncn2[C@@H]2O[C@H](COP(=O)(O)OP(=O)(O)O)[C@@H](O)[C@H]2O)c(=O)[nH]1 [GDP],Kd,[1],240 ± 100 nM
same,Kd,[2],340 ± 100 nM
same,Kd,[3],520 ± 120 nM
